One series deals with tobacco leaves. In words: Effect of peptide infiltration on tobacco leaves. It counts as in vivo. As to conditions: for Size of the lesions in infiltrated tobacco leaves (diameter): 250 μM, 100 μL infiltrated into mesophyll, measured after 48 h; for Reaction observed in the area of infiltration of tobacco leaves: in contrast to melittin. As for the experimental part:
BP100 and the 36 lipopeptides were evaluated for their effect upon infiltration on tobacco leaves as described previously. Peptide solutions of 50, 150 and 250 μM were infiltrated (100 μL) into the mesophylls of fully expanded tobacco leaves. Infiltrations were carried out in a single leaf, and for each peptide and dose, at least three leaves randomly distributed in different plants were inoculated. Control infiltrations with water (negative control) or melittin (positive control) at the same molar concentration were performed. The appearance of symptoms on the leaves was followed for 48 h after infiltration and measured as a lesion diameter.

For series [1], the system named is defense-related genes in tomato plants. In words: Induction of defense gene expression of tomato plants (RT-qPCR). The series is classed as in vivo, tomato cv. Rio Grande. As to conditions: for BCB gene expression, fold induction / ERT3 gene expression, fold induction / GluA gene expression, fold induction / Harp gene expression, fold induction / LOX gene expression, fold induction / Osm2 gene expression, fold induction / PPO gene expression, fold induction / PR1 gene expression, fold induction / PinII gene expression, fold induction / Sub1 gene expression, fold induction / Tas14 gene expression, fold induction: tomato leaves sprayed, 24 h, peptides and flg15 125 μM, JA 2.5 mM, ASM 300 mg/L, ΔΔCt relative to actin, above 2 = overexpression; for Number of defense-related genes significantly induced / Defense gene expression in tomato plants (genes overexpressed): treatment at 125 μM; for Defense gene expression in tomato plants (genes overexpressed): significant overexpression (REST2009). As for the experimental part: Seeds of tomato cv. Rio Grande plants were sown in hydroponic seed plugs (rockwool), germinated and grown under controlled greenhouse conditions (25 ± 2°C, 16 h light / 15 ± 2°C, 8 h dark, and 60% RH). Two-week old seedlings (two cotyledons) were transplanted into rockwool plugs (7.5×7.5×6.5 cm, Grodan Iberica). The experimental design consisted of three replicates of three plants per treatment. After two weeks, tomato leaves were sprayed with aqueous solutions of BP100, 9 selected derivatives and flg15 at 125 μM, jasmonic acid at 2.5 mM (Sigma-Aldrich, Sant Louis, Missouri, UE), and acybenzolar-S-methyl at 300 mg/L (Syngenta, Basel, Switzerland), until the run-off point. Water-sprayed plants were used as not treated controls. Twenty-four hours after product application leaf samples were collected and processed to extract RNA for RT-qPCR assays. Plant material was ground to a fine powder in liquid nitrogen with the Tissuelyzer II system (Qiagen). Total RNA was extracted from leaves using PureLink Plant RNA Reagent (Invitrogen, Life Technologies) according to the manufacturer’s manual. The RNA was solubilized in RNAse free water and was routinely subjected to DNAse treatment (Ambion® Turbo DNA-free™, Life Technologies) to remove any contaminant DNA. In each step, the RNA was quantified using a Nanodrop N-2000 spectrophotometer, and its integrity verified by denaturing agarose gel electrophoresis. First-strand of complementary DNA (cDNA) was generated from leave RNA using reverse transcriptase (High Capacity cDNA Reverse Transcription Kit, Invitrogen) according to the manufacturer’s manual.
To test gene defense induction in the treated tomato plants, a qPCR assay was performed. Quantitative PCR was carried out in a fluorometric thermal cycler (qPCR Quant Studio 5, Applied Biosystems) by using a Mix SYBR®Green PCR Master Mix (Applied Biosystems). The total reaction volume of this PCR reaction was 20 μL and the reaction mixture was 1 μL of each primer set at the adequate concentration, 10 μL of MixSyber Green, 6 μL of distilled water and 2 μL of cDNA. Melting curve analysis was performed after amplification to verify amplification specificity. A constitutive gene (actin gene) was used as reference control, and the following genes implicated in plant defense response were analyzed: Pathogenesis-related protein-1 (PR1), Harpin (Harp), Polyphenol oxidase (PPO), Subtilisin-like protease (Sub1), Blue copper binding-protein (BCB), Osmotin (Osm2), Acidic β-1,3 endoglucanase (GluA), Lypoxigenase (LOX), Protein inhibitor II (PinII), Dehydrin (Tas14) and Ethylene response transcription factor (ERT3). […] For each gene system, the concentration of the primer pair was optimized. The primer concentration was 100 nM for all the genes except for the GluA, Harp, PR1 and actin genes which optimized concentration was 300 nM. A calibration curve was prepared by cloning the corresponding DNA in the pSpark cloning vector (Canvax, Córdoba, Spain) according to the manufacturer instructions, which was then used to transform E. coli DH5α by standard procedures. The number of plasmid copies were quantified after purification from E. coli (QIAGEN Iberia, S. L., Madrid, Spain), and appropriate dilutions were prepared to obtain the standard curve. […] Relative quantification of gene expression was done using the ΔΔCt method. Each biological repetition treatment was analyzed in duplicate. The mean of the Ct values obtained were used to estimate the fold change value of the endogenous reference gene (actin) and the target plant defense genes.

Series [2] deals with Fusarium oxysporum f. sp. lycopersici FOL 3 race 2. In words: MIC, antifungal growth inhibition in microtiter plates (PDB). The following applies: Fo, 22°C, seven days, OD 600 nm, lowest concentration with no growth, given as interval of tested concentrations, three replicates, experiment repeated twice. The series is classed as cell-based. In a few lines: (§1)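 Conidial suspensions (10^3 conidia/mL P. expansum, 10^4 F. oxysporum) incubated with peptides in PDB with 0.003% chloramphenicol at 22 °C for seven days, OD600 read every 2 h. MIC is the lowest concentration with no growth at the end; triplicates, experiment repeated twice.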

For series [3], the system named is Penicillium expansum EPS26. The series is described as above. As to conditions: Pe, 22°C, seven days, OD 600 nm, lowest concentration with no growth, given as interval of tested concentrations, three replicates, experiment repeated twice. The series is classed as cell-based. In a few lines: as §1

What is called MIC is the smallest concentration in the dilution series that meets the test's criterion for growth inhibition.

Where only a bound is given, the exact number is not on record here.

Take `CCCCCC(=O)NCCCC[C@H](NC(=O)[C@H](Cc1ccc(O)cc1)NC(=O)[C@H](CCCCN)NC(=O)[C@H](CC(C)C)NC(=O)[C@@H](NC(=O)[C@H](CCCCN)NC(=O)[C@H](CCCCN)NC(=O)[C@H](Cc1ccccc1)NC(=O)[C@H](CC(C)C)NC(=O)[C@H](CCCCN)NC(=O)[C@H](CCCCN)NC(C)=O)[C@@H](C)CC)C(N)=O` [BP378, Ac-KKLFKKILKYK(COC5H11)-NH2]: in the series on tobacco leaves, the “Size of the lesions in infiltrated tobacco leaves (diameter)” value (shortened to “Size of the lesions”) was determined as 13.2 ± 4.7 mm and the “Reaction observed in the area of infiltration of tobacco leaves” value is recorded as “not a typical necrosis”. Further, in series [1], the “BCB gene expression, fold induction” value was determined as 1.3; the “ERT3 gene expression, fold induction” value is 1.0; the “GluA gene expression, fold induction” value was found to be 0.6; the “Harp gene expression, fold induction” value was determined as 1.2. In addition, in series [1], the “LOX gene expression, fold induction” value is 1.5; the “Osm2 gene expression, fold induction” value is 2.9; the “PPO gene expression, fold induction” value came out at 1.7; the “PR1 gene expression, fold induction” value is recorded as 2.0. In series [1], the “PinII gene expression, fold induction” value turned out to be 5.8; the “Sub1 gene expression, fold induction” value turned out to be 0.9; the “Tas14 gene expression, fold induction” value was found to be 3.5; the “Number of defense-related genes significantly induced” value is reported as 3. Also, in series [1], the “Defense gene expression in tomato plants (genes overexpressed)” value (“Defense gene expression in tomato plants” for short) is “PinII, Osm2 and Tas14”. Moreover, in series [2], the MIC is 0.8 to 1.6 µM. Further, in series [3], the MIC is 3.1 to 6.2 µM.

In the case of `CCCC(=O)NCCCC[C@H](NC(=O)[C@H](CCCCN)NC(C)=O)C(=O)N[C@@H](CC(C)C)C(=O)N[C@@H](Cc1ccccc1)C(=O)N[C@@H](CCCCN)C(=O)N[C@@H](CCCCN)C(=O)N[C@H](C(=O)N[C@@H](CC(C)C)C(=O)N[C@@H](CCCCN)C(=O)N[C@@H](Cc1ccc(O)cc1)C(=O)N[C@@H](CC(C)C)C(N)=O)[C@@H](C)CC` [BP381, Ac-KK(COC3H7)LFKKILKYL-NH2], in the series with tobacco leaves, the “Size of the lesions” value was determined as 10.8 ± 1.9 mm. For the same compound, in series [1], the “BCB gene expression, fold induction” value amounted to 1.2; the “ERT3 gene expression, fold induction” value came out at 0.7; the “GluA gene expression, fold induction” value was 0.6; the “Harp gene expression, fold induction” value is 0.7. For the same compound, in series [1], the “LOX gene expression, fold induction” value was 0.8; the “Osm2 gene expression, fold induction” value worked out at 2.1; the “PPO gene expression, fold induction” value was 1.3; the “PR1 gene expression, fold induction” value worked out at 0.2. In addition, in series [1], the “PinII gene expression, fold induction” value was 0.4; the “Sub1 gene expression, fold induction” value was found to be 0.5; the “Tas14 gene expression, fold induction” value turned out to be 3.4; the “Defense gene expression in tomato plants” value is “one gene (Osm2, Tas14 or BCB) and Osm2”. Moreover, the MIC in series [2] is 0.8 to 1.6 µM. The MIC in series [3] was in the range of 1.6 to 3.1 µM.

Consider `CCCC(=O)NCCCC[C@H](NC(=O)[C@@H](NC(=O)[C@H](CCCCN)NC(=O)[C@H](CCCCN)NC(=O)[C@H](Cc1ccccc1)NC(=O)[C@H](CC(C)C)NC(=O)[C@H](CCCCN)NC(=O)[C@H](CCCCN)NC(C)=O)[C@@H](C)CC)C(=O)N[C@@H](CCCCN)C(=O)N[C@@H](Cc1ccc(O)cc1)C(=O)N[C@@H](CC(C)C)C(N)=O` [BP387, Ac-KKLFKKIK(COC3H7)KYL-NH2], for which the “Size of the lesions” value in the series on tobacco leaves is reported as 9.2 ± 0.96 mm. Also, in series [1], the “BCB gene expression, fold induction” value is 1.7; the “ERT3 gene expression, fold induction” value is given as 0.2; the “GluA gene expression, fold induction” value is listed as 0.7; the “Harp gene expression, fold induction” value worked out at 1.2. Moreover, in series [1], the “LOX gene expression, fold induction” value is reported as 0.7; the “Osm2 gene expression, fold induction” value came out at 1.0; the “PPO gene expression, fold induction” value is reported as 1.3; the “PR1 gene expression, fold induction” value is recorded as 0.4. Besides, in series [1], the “Sub1 gene expression, fold induction” value is recorded as 0.8; the “Tas14 gene expression, fold induction” value was 1.0; the “Defense gene expression in tomato plants” value is “none”. Further, in series [2], the minimal inhibitory concentration (MIC) was 0.8 to 1.6 µM. For the same compound, in series [3], the MIC lay in the range of 6.2 to 12.5 µM.

With `CCCC(=O)NCCCC[C@H](NC(=O)[C@H](CCCCN)NC(=O)[C@H](CC(C)C)NC(=O)[C@@H](NC(=O)[C@H](CCCCN)NC(=O)[C@H](CCCCN)NC(=O)[C@H](Cc1ccccc1)NC(=O)[C@H](CC(C)C)NC(=O)[C@H](CCCCN)NC(=O)[C@H](CCCCN)NC(C)=O)[C@@H](C)CC)C(=O)N[C@@H](CC(C)C)C(N)=O` [BP389, Ac-KKLFKKILKK(COC3H7)L-NH2], in the series with tobacco leaves, the “Size of the lesions” value was found to be 9.0 ± 2.9 mm. In series [1], the “BCB gene expression, fold induction” value amounted to 2.1; the “ERT3 gene expression, fold induction” value worked out at 0.1; the “GluA gene expression, fold induction” value turned out to be 0.3; the “Harp gene expression, fold induction” value was found to be 0.9. For the same compound, in series [1], the “LOX gene expression, fold induction” value was 1.2; the “Osm2 gene expression, fold induction” value stood at 1.0; the “PPO gene expression, fold induction” value came out at 0.5; the “PR1 gene expression, fold induction” value came to 0.3. In series [1], the “PinII gene expression, fold induction” value worked out at 2.8; the “Sub1 gene expression, fold induction” value is 0.5; the “Tas14 gene expression, fold induction” value turned out to be 0.7; the “Number of defense-related genes significantly induced” value was found to be 2. In series [1], the “Defense gene expression in tomato plants” value was “PinII and BCB”. Further, in series [2], the MIC is 1.6 to 3.1 µM. Also, in series [3], the MIC is 6.2 to 12.5 µM.

For the compound `CCCCCCCCCCCC(=O)NCCCC[C@H](NC(=O)[C@H](CC(C)C)NC(=O)[C@@H](NC(=O)[C@H](CCCCN)NC(=O)[C@H](CCCCN)NC(=O)[C@H](Cc1ccccc1)NC(=O)[C@H](CC(C)C)NC(=O)[C@H](CCCCN)NC(=O)[C@H](CCCCN)NC(C)=O)[C@@H](C)CC)C(=O)N[C@@H](Cc1ccc(O)cc1)C(=O)N[C@@H](CC(C)C)C(N)=O` [BP400, Ac-KKLFKKILK(COC11H23)YL-NH2], the “Reaction observed in the area of infiltration of tobacco leaves” value with tobacco leaves is “not a typical necrosis”. Also, in series [1], the “BCB gene expression, fold induction” value was found to be 0.6; the “ERT3 gene expression, fold induction” value worked out at 0.2; the “GluA gene expression, fold induction” value stood at 0.1; the “Harp gene expression, fold induction” value amounted to 1.4. For the same compound, in series [1], the “LOX gene expression, fold induction” value came out at 1.1; the “Osm2 gene expression, fold induction” value is reported as 0.9; the “PPO gene expression, fold induction” value is given as 1.4; the “PR1 gene expression, fold induction” value amounted to 0.1. Besides, in series [1], the “PinII gene expression, fold induction” value came out at 1.1; the “Sub1 gene expression, fold induction” value was determined as 0.5; the “Tas14 gene expression, fold induction” value is 8.3; the “Defense gene expression in tomato plants” value was “one gene (Osm2, Tas14 or BCB)”. Also, the MIC in series [2] lay within 6.2 to 12.5 µM. Also, the MIC in series [3] is more than 25 µM.

The record behind these values is publication PMC6063448, “Antimicrobial activity of linear lipopeptides derived from BP100 towards plant pathogens” (PLoS ONE, 2018).
